Source: patent US20250287947A1, “BIOCIDES AND ADHESIVE BINDING THEREOF” (EBERHARD KARLS UNIVERSITÄT TÜBINGEN MEDIZINISCHE FAKULTÄT, priority 2022, published 2025)

Tested on: β-galactosidase-expressing E. coli strain
Assay: Wash resistance and biocidal activity of Py-C12 treated beech wood sheets (Example 19)
Type: cell-based
Details: treated with 1% (w/v) free base; washed with water up to 30 washing steps, 15 min each; E. coli 4 days at 37° C.
Description: In a first step, 1% (w/v) Py-C12 free base in water) was warmed to 50° C. to obtain a liquid solution. After incubation of beech wood sheets with the Py-C12 solution, the samples were cooled to room temperature upon which the liquid Py-C12 was converted into a solid phase and thus immobilized to the material. After drying, samples were washed with water at room temperature […] for 15 minutes each time. Thereafter, all samples were inoculated with a β-galactosidase-expressing E. coli strain and then incubated for 4 days at 37° C.

CCCCCCCCCCCCNCCCNC(=O)C1CCC(=O)N1 (stereo not shown) [Py-C12, 5-N-carboxamido-2-pyrrolidone-N′-n-dodecyl propane-1,3-diamine]
bacterial growth on treated beech wood sheets after washing: Blue coloured bacteria only appear on control sample
